From patent publication US7528205B2, “Photo radical generator, photo sensitive resin composition and article” (Dai Nippon Printing Co., Ltd., priority 2003, dated 2009)

What was measured:
[1] = Evaluation 1 of curability (coating layer with trifunctional acrylate, UV exposure, no hydrogen donor); conditions: for Reaction rate (decrement of double bond): nitrogen; for Compatibility with M305: imide part/double bond 1/50
Protocol: (§1) Using a trifunctional acrylate (product name; M-305, manufactured by Toagosei Co., Ltd.) as polyfunctional monomers, the compounds 1 to 14, the comparative compounds 2 and 3 and a photoradical generator Irgacure 907 (product name; manufactured by Ciba Specialty Chemicals) were mixed with each polyfunctional monomer to prepare each THF solution of each photoradical generator.
(§2) The mixing was performed so that a ratio of the photoradical generator to the polyfunctional monomer is such that number of imide part of each of the compounds 1 to 14 and the comparative compounds 2 and 3 with respect to number of double bond of the polyfunctional monomer is 1/50 (number of imide part/number of polyfunctional monomer) or, in the case of Irgacure, number of the molecule with respect to number of double bond of the polyfunctional monomer is 1/50 (number of Irgacure 907/number of polyfunctional monomer).
(§3) Each solution was applied by spin coating to a glass substrate on which chromium was sputtered to obtain coating layers. Also, a layer without initiator component or comparative compounds and only containing trifunctional acrylate was formed as a blank.
(§4) A decrement of the peak at 810 cm^−1 was recorded with time by using an infrared spectrometer (product name: FTS6000; manufactured by BIO RAD) while exposing the above coating layer to ultraviolet rays, to confirm the degree of the disappearance of a double bond. The atmosphere around the sample during measurement was replaced with nitrogen. As the UV exposure apparatus, UV Spot Cure SP-III type (standard reflecting mirror type) manufactured by Ushio Inc. was used and as the UV lamp, USH-255BY (manufactured by Ushio Inc.) was used.

[2] = Evaluation of heat resistance (thermogravimetry, 5% reduction in weight temperature); type: physicochemical; conditions: for 5% heat decomposition temperature: temperature rise rate 10° C./min; for 5% heat decomposition temperature / heat resistance / 5% reduction in weight temperature, comparison in words: nitrogen atmosphere; for residue on heating: heated to 600° C. in a nitrogen atmosphere; for heat resistance / 5% reduction in weight temperature, comparison in words: 10° C./min
Protocol: Herein, the 5% reduction in weight temperature means a temperature at which the weight of a sample is reduced […] when a decrement of weight is measured using a thermogravimetric analyzer according to the same method as in the examples of the present invention as will be explained later. Similarly, the 10% reduction in weight temperature means a temperature at which the weight of a sample is reduced […].
Using a differential type differential thermal balance (product name: TG8120; manufactured by Rigaku Corporation), the 5% reduction in weight temperature of each of the compounds 1 to 15 was measured at a temperature rise rate of 10° C./min in a nitrogen atmosphere. As comparative examples, the comparative compounds 2 and 3 and a self-cleavage type photoradical generator Irgacure 907 (trademark; manufactured by Ciba Specialty Chemicals) were similarly measured.

[3] = Evaluation 2 of curability (triethanolamine added as hydrogen donor)
Protocol: as §1, §2, §3, §4
In order to confirm whether or not the seven-membered ring imide structure-containing group was a hydrogen-drawing type radical generator, triethanolamine was added to THF solutions containing each of the compositions 1 to 14 used in the aforementioned Evaluation 1 of curability and trifunctional acrylate M305, coating layers were formed in the same manner as in the aforementioned Evaluation 1 of curability, and evaluated similarly. As comparative examples, each of the comparative compounds 1 and 3 was used.

Row | SMILES | Compatibility with M305 [1] | 5% heat decomposition temperature [2] | Compatibility with M305 [3] | Reaction rate (decrement of double bond) ([1]; Exposure 50 mJ) | Reaction rate (decrement of double bond) ([1]; Exposure 100 mJ) | Reaction rate (decrement of double bond) ([1]; Exposure 400 mJ) | Reaction rate (decrement of double bond) ([3]; Exposure 50 mJ) | Reaction rate (decrement of double bond) ([3]; Exposure 100 mJ) | Reaction rate (decrement of double bond) ([3]; Exposure 400 mJ) | residue on heating [2] | heat resistance / 5% reduction in weight temperature, comparison in words [2]
1 | CC(=O)OCCn1c(=O)c2ccccc2c2ccccc2c1=O [Compound 2] | ∘ | 240 °C | ∘ | 0.1% | 0.2% | 1.2% | 23.7% | 29.4% | 41.1% |  | 
2 | CC(=O)OCCOCCn1c(=O)c2ccccc2c2ccccc2c1=O [Compound 3] | ∘ | 260 °C | ∘ | 0.1% | 0.2% | 0.8% | 26.8% | 32.7% | 43.7% |  | 
3 | CC(=O)OCC(C(C)C)n1c(=O)c2ccccc2c2ccccc2c1=O (stereo not drawn) [Compound 4] | ∘ | 208 °C | ∘ | 0.2% | 0.4% | 0.9% | 22.0% | 28.2% | 40.0% |  | 
4 | C=CC(=O)OCCOCCn1c(=O)c2ccccc2c2ccccc2c1=O [Compound 8] | ∘ | 357 °C | ∘ | 5.0% | 7.3% | 21.4% | 36.2% | 41.4% | 51.4% | carbide was left not decomposed completely | specifically high
5 | C=CC(=O)OCCOCCOCCn1c(=O)c2ccccc2c2ccccc2c1=O [Compound 9] | ∘ | 295 °C | ∘ | 0.5% | 0.7% | 1.2% | 13.8% | 19.9% | 34.4% |  | 
6 | CSc1ccc(C(=O)C(C)(C)N2CCOCC2)cc1 [Irg907, reference compound] | ∘ | 207 °C |  | 34.8% | 40.8% | 50.6% |  |  |  |  | 

Now from value to molecule, other results behind:

Row | Compatibility with M305 [1] | 5% heat decomposition temperature [2] | Compatibility with M305 [3] | SMILES | Reaction rate (decrement of double bond) ([1]; Exposure 50 mJ) | Reaction rate (decrement of double bond) ([1]; Exposure 100 mJ) | Reaction rate (decrement of double bond) ([1]; Exposure 400 mJ) | Reaction rate (decrement of double bond) ([3]; Exposure 50 mJ) | Reaction rate (decrement of double bond) ([3]; Exposure 100 mJ) | Reaction rate (decrement of double bond) ([3]; Exposure 400 mJ) | residue on heating [2] | heat resistance / 5% reduction in weight temperature, comparison in words [2]
7 | ∘ | 213 °C | ∘ | C=COCCCn1c(=O)c2ccccc2c2ccccc2c1=O [Compound 5] | 0.4% | 0.7% | 2.3% | 23.8% | 29.2% | 41.0% |  | 
8 | ∘ | 257 °C | ∘ | CC(=O)OCCOCCOCCn1c(=O)c2ccccc2c2ccccc2c1=O [Compound 6] | 3.2% | 5.4% | 14.2% | 33.1% | 37.9% | 47.9% |  | 
9 | ∘ | 233 °C | ∘ | C=CC(=O)OCCn1c(=O)c2ccccc2c2ccccc2c1=O [Compound 7] | 1.5% | 3.4% | 7.7% | 25.3% | 30.1% | 41.3% | carbide was left not decomposed completely | 
10 | ∘ | 204 °C | ∘ | O=c1c2ccccc2c2ccccc2c(=O)n1CCOCCn1c(=O)c2ccccc2c2ccccc2c1=O [Compound 10] | 4.0% | 6.8% | 17.4% | 30.8% | 40.7% | 45.9% |  | 
11 | ∘ | 240 °C | ∘ | O=c1c2ccccc2c2ccccc2c(=O)n1CCOCCOCCOCCn1c(=O)c2ccccc2c2ccccc2c1=O [Compound 11] | 27.9% | 37.3% | 42.3% | 18.0% | 21.3% | 29.4% |  | 
12 | ∘ | 276 °C | ∘ | O=c1c2ccccc2c2ccccc2c(=O)n1CCOCCOCCOCCOCCOCCn1c(=O)c2ccccc2c2ccccc2c1=O [Compound 12] | 11.0% | 15.2% | 24.8% | 25.2% | 30.7% | 40.6% |  | 
13 | ∘ | 177 °C | ∘ | CN(C)CCn1c(=O)c2ccccc2c2ccccc2c1=O [Compound 13] | 0.2% | 0.8% | 4.2% | 11.0% | 15.2% | 24.8% |  | slightly lower 5% reduction in weight temperature
14 | ∘ | 234 °C | ∘ | CC(=O)OCCN(CCn1c(=O)c2ccccc2c2ccccc2c1=O)C(C)=O [Compound 14] | 1.0% | 2.0% | 6.4% | 16.8% | 20.9% | 30.5% |  | 
15 | ∘ | 184 °C | ∘ | C=CC(=O)OCCN1C(=O)C2=C(CCCC2)C1=O [compound 2, reference compound] | 0.1% | 0.3% | 2.0% | 1.3% | 2.0% | 8.6% |  | 
